From publication PMC12229529 (Scientific Reports, 2025)

Assays:
PknB (His-PknB) [1] = molecular target: T1, PknB (His-PknB) (Trueperella pyogenes, UniProt A0ABV3NC81); assay: SPR; type: binding; details: 1x PBS-P buffer; luteolin 0.3125-10 μmol/L (KD lies above the tested range)
T1 sequence (A0ABV3NC81 1-331): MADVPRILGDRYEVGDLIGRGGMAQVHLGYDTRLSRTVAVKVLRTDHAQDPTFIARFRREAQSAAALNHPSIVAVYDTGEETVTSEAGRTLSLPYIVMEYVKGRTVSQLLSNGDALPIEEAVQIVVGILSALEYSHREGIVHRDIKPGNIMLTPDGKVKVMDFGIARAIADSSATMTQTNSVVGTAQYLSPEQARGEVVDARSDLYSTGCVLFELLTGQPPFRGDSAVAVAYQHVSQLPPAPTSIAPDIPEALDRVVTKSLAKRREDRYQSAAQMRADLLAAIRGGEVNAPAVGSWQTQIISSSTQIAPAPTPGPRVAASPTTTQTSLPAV

[2] = molecular target: serine/threonine protein kinase B (PknB); assay: SPR; type: binding, Trueperella pyogenes
PknB (His-PknB) [3] = molecular target: T1, PknB (His-PknB); assay: ATP consumption luminescence; type: biochemical; details: 20 μM ATP, 10 mM MgCl2, 50 mM Tris-HCl pH 7.8, 1 mM DTT, 25 °C, 30 min

Kd (PknB (His-PknB) [1]): 312 µM | Kd [2]: 312 µM | IC50 (PknB (His-PknB) [3]): 221 µM
SMILES: O=c1cc(-c2ccc(O)c(O)c2)oc2cc(O)cc(O)c12 [luteolin]
